Reference: PMC7920280, “The Multi-Targeting Ligand ST-2223 with Histamine H3 Receptor and Dopamine D2/D3 Receptor Antagonist Properties Mitigates Autism-Like Repetitive Behaviors and Brain Oxidative Stress in Mice” (International Journal of Molecular Sciences, 2021)

Columns and labels:
Format in all cases: in vivo
[1] = test system: BTBR and B6 mice; assay: Marble burying task (MBT); conditions: MEM 5 mg/kg; for percentage of marbles buried vs vehicle-treated BTBR mice: i.p. 30-45 min before, ST-2223 2.5, 5 and 10 mg/kg, ARP 1 mg/kg; for percentage of marbles buried vs vehicle-treated B6 mice: i.p., ST-2223 2.5, 5, 10 mg/kg
Protocol: (§1) The drugs tested included ST-2223 [N-(4-(4-(2-methoxyphenyl)piperazin-1-yl)butyl)-6-(3-(piperidin-1-yl)propoxy)-2-naphthamide] that was designed and synthesized in the Institute of Pharmaceutical and Medicinal Chemistry, Heinrich Heine University Düsseldorf, Germany, and in accordance with previously described methodologies (Supplementary Materials). Aripiprazole (ARP) (1 mg/kg, i.p.) and memantine (MEM, 5 mg/kg, i.p.), as reference drugs, were purchased from Sigma-Aldrich (St. Louis, MO, USA). The CNS-penetrant H3R agonist (R)-α-methylhistamine (RAM, 10 mg/kg, i.p.) was purchased from Sigma-Aldrich, St. Louis, MO, USA. T. Protease and the phosphatase inhibitor cocktail were procured from Thermo Scientific, USA. The assay kit for reduced glutathione (GSH) was obtained from Sigma-Aldrich (St. Louis, MO, USA). The lipid peroxidation assay kit for estimation of malondialdehyde (MDA) was purchased from North West Life Science (Vancouver, WA, USA). The assay kits for superoxide dismutase (SOD) and catalase (CAT) were purchased from Cayman Chemical (Ann Arbor, MI, USA). The drugs were prepared daily using 1% dimethyl sulfoxide (DMSO) in 0.9% saline, for intraperitoneal (i.p.) administration at a volume of 10 mL/kg of body weight. Vehicle treatment consisted of 1% DMSO in 0.9% normal saline. All drugs were i.p. administered 30 min before the behavioral test. The doses of these drugs were chosen based on previous reports. Neurobehavioral assessment was performed blindly with respect to experimental group and drug administration.
The MBT is used for testing repetitive and compulsive behaviors as it accurately reflects repetitive digging behavior [95, 96]. The test was performed as described previously, with slight modifications. Briefly, cages (26 cm × 48 cm × 20 cm) were filled with fresh, unscented mouse bedding material to a depth of 5 cm, on top of which 20 marbles were placed in 4 rows of 5 marbles each (15 mm diameter). Before placing the marbles, the bedding surface was leveled by placing another cage of the same size onto the surface of the bedding and then each mouse was individually added for 10 min habituation. After habituation, the mouse was removed, and the marbles were carefully overlaid. The same mouse was then returned to its designated test cage and allowed to explore for 30 min. The total number of marbles buried (>50% marble covered by the bedding material) was determined at the end of the session.

[2] = test system: BTBR and B6 mice; assay: Spontaneous alternation behavior (SAB), Y maze; conditions: i.p., ST-2223 2.5, 5 and 10 mg/kg, MEM 5 mg/kg, ARP 1 mg/kg
Protocol: as §1
The SAB test is based on the exploratory strategy of rodents to explore a new environment. In examining repetitive behaviors, the Y maze test took advantage of the rodents’ natural tendency to spontaneously alternate or choose a different arm of the maze instead of the one they visited on their previous entry (i.e., least recently visited arm). A decrease in the percentage alternation can also be attributed to same arm repeated visits. Spontaneous alternation behavior was measured on a Y maze apparatus, as previously described, with slight modifications. The Y maze composed of three arms (30 cm × 6 cm × 15 cm), where the arms were labeled with letters: A, B, or C. The test mouse was placed in the center of the maze and was allowed to freely explore the maze for 8 min. The number of entries into each arm and the total number of entries were recorded by the observer. A spontaneous alternation was defined as successive entry into three arms on an overlapping triplet set. Percentage spontaneous alternation was calculated as the number of spontaneous alternations (actual alternations) over the total number of entries (possible alternations). Two arm entries were subtracted from the denominator because an alternation required at least 3 entries. The apparatus was cleaned with 70% alcohol solution after each mouse was tested. (1) Percentage spontaneous alternations=Total alternations/(Total arm entries − 2) ×100

[3] = test system: BTBR and B6 mice; assay: Open field test (OFT): locomotor activity and anxiety levels; conditions: i.p.; for total distance travelled (OFT) / time spent in the periphery (OFT), effect of treatment: B6 and BTBR mice; for total distance travelled (OFT) / time spent in the central arena (OFT) vs vehicle-treated B6 mice / time spent in center (OFT) vs vehicle-treated BTBR mice: ST-2223 2.5, 5 and 10 mg/kg, MEM 5 mg/kg, ARP 1 mg/kg; for time spent in the periphery (OFT), effect of treatment: ST-2223 2.5, 5 or 10 mg/kg, MEM, ARP
Protocol: as §1
The open field test (OFT) systematically evaluates exploration behaviors executed in a novel open field (considered as a novel environment), as an independent control for the effects of the drugs on physical activity that could confound the interpretation of the results from the self-grooming, anxiety and spontaneous alternation. Mice were allowed to freely explore an open-field arena (45 × 45 × 30 cm), to assess general locomotor activity, and anxiety-related behaviors. The center arena was defined as the central 23 × 23 cm area. Mice were given 5 min to habituate in the center area of the arena before the recording started for the actual behavioral assessments. Recording lasted for 10 min using charge-coupled device (CCD) camera-assisted motion tracking apparatus and software (EthoVision 3.1, Noldus Information Technology, The Netherlands), and the total distance moved in the whole arena, time spent in the center and periphery were recorded. Test chambers were cleaned with 70% ethanol after each trial and were allowed to dry until ethanol evaporation and odor dissipation had occurred. When interpreting the results observed in this assessment, less time spent in the center was considered as an indicator for high levels of anxiety-like behaviors and total distance travelled signified the overall locomotor activity of tested animals.

| SMILES | percentage of marbles buried vs vehicle-treated BTBR mice [1] | percentage of spontaneous alternation vs vehicle-treated B6 mice [2] | percentage of spontaneous alternation vs vehicle-treated BTBR mice [2] | total distance travelled (OFT) [3] | time spent in the periphery (OFT), effect of treatment [3] | time spent in the central arena (OFT) vs vehicle-treated B6 mice [3] | time spent in center (OFT) vs vehicle-treated BTBR mice [3] | percentage of marbles buried vs vehicle-treated B6 mice [1] |
| --- | --- | --- | --- | --- | --- | --- | --- | --- |
| O=C1CCc2ccc(OCCCCN3CCN(c4cccc(Cl)c4Cl)CC3)cc2N1 [ARP, aripiprazole] | significantly reduced | did not alter | failed to significantly mitigate | did not show any alteration | no significant effect | did not alter | significantly increased | – |
| CC12CC3CC(C)(C1)CC(N)(C3)C2 [MEM, memantine] | significantly reduced | did not alter | significantly increased | did not show any alteration | no significant effect | did not alter | failed to significantly mitigate | not significant |
| COc1ccccc1N1CCN(CCCCNC(=O)c2ccc3cc(OCCCN4CCCCC4)ccc3c2)CC1 [ST-2223, N-(4-(4-(2-methoxyphenyl)piperazin-1-yl)butyl)-6-(3-(piperidin-1-yl)propoxy)-2-naphthamide] | significantly decreased | did not alter | significantly increased | did not show any alteration | no significant effect | did not alter | significantly increased | did not alter |
